Data: ChEMBL document CHEMBL5303573, “Mapping human microbiome drug metabolism by gut bacteria and their genes” (Nature, 2019)

Assays:
[1] = The drug is tested on Providencia rettgeri strain: DSM1131 for biotransformation. The drug concentrations were measured before and after a 12-h incubation by liquid-chromatography-coupled mass spectrometry (LC–MS); assay type: ADME; set-up: dose 2 uM, timepoint 0 vs 12 hours; details: 2 µM
[2] = akkermansia muciniphila, 12 h, 2 µM
Description: The drug is tested on Akkermansia muciniphila strain: ATCC BAA-835 for biotransformation. The drug concentrations were measured before and after a 12-h incubation by liquid-chromatography-coupled mass spectrometry (LC–MS)

[3] = The drug is tested on Odoribacter splanchnicus strain: fecal isolate for biotransformation. The drug concentrations were measured before and after a 12-h incubation by liquid-chromatography-coupled mass spectrometry (LC–MS); details: 2 µM
[4] = anaerostipes sp., 12 h, 2 µM
Description: The drug is tested on Anaerostipes sp. strain: fecal isolate for biotransformation. The drug concentrations were measured before and after a 12-h incubation by liquid-chromatography-coupled mass spectrometry (LC–MS)

[5] = The drug is tested on Clostridium sporogenes strain: ATCC15579 for biotransformation. The drug concentrations were measured before and after a 12-h incubation by liquid-chromatography-coupled mass spectrometry (LC–MS); details: 2 µM
[6] = The drug is tested on Bacteroides finegoldii strain: DSM17565 for biotransformation. The drug concentrations were measured before and after a 12-h incubation by liquid-chromatography-coupled mass spectrometry (LC–MS); details: 2 µM
[7] = The drug is tested on Coprococcus comes strain: ATCC27758 for biotransformation. The drug concentrations were measured before and after a 12-h incubation by liquid-chromatography-coupled mass spectrometry (LC–MS); assay type: ADME; set-up: dose 2 uM, timepoint 0 vs 12 hours; details: 2 µM
[8] = bacteroides intestinalis, 12 h, 2 µM
Description: The drug is tested on Bacteroides intestinalis strain: DSM17393 for biotransformation. The drug concentrations were measured before and after a 12-h incubation by liquid-chromatography-coupled mass spectrometry (LC–MS)

[9] = The drug is tested on Eubacterium rectale strain: ATCC33656 for biotransformation. The drug concentrations were measured before and after a 12-h incubation by liquid-chromatography-coupled mass spectrometry (LC–MS); details: agathobacter rectalis, 2 µM
[10] = limosilactobacillus reuteri cf48-3a, 12 h, 2 µM
Description: The drug is tested on Lactobacillus reuteri CF48-3A strain: BEI HM-102 for biotransformation. The drug concentrations were measured before and after a 12-h incubation by liquid-chromatography-coupled mass spectrometry (LC–MS)

[11] = The drug is tested on Anaerococcus hydrogenalis strain: DSM7454 for biotransformation. The drug concentrations were measured before and after a 12-h incubation by liquid-chromatography-coupled mass spectrometry (LC–MS); details: 2 µM
[12] = The drug is tested on Enterobacter cancerogenus strain: ATCC35316 for biotransformation. The drug concentrations were measured before and after a 12-h incubation by liquid-chromatography-coupled mass spectrometry (LC–MS); details: 2 µM
[13] = The drug is tested on Ruminococcus gnavus strain: ATCC29149 for biotransformation. The drug concentrations were measured before and after a 12-h incubation by liquid-chromatography-coupled mass spectrometry (LC–MS); details: mediterraneibacter gnavus, 2 µM
[14] = The drug is tested on Subdoligranulum variabile strain: DSM15176 for biotransformation. The drug concentrations were measured before and after a 12-h incubation by liquid-chromatography-coupled mass spectrometry (LC–MS); details: 2 µM
[15] = The drug is tested on Clostridium symbiosum strain: ATCC14940 for biotransformation. The drug concentrations were measured before and after a 12-h incubation by liquid-chromatography-coupled mass spectrometry (LC–MS); details: 2 µM
[16] = enterocloster bolteae, 12 h, 2 µM
Description: The drug is tested on Clostridium bolteae strain: ATCCBAA-613 for biotransformation. The drug concentrations were measured before and after a 12-h incubation by liquid-chromatography-coupled mass spectrometry (LC–MS)

[17] = The drug is tested on Providencia stuartii strain: ATCC25827 for biotransformation. The drug concentrations were measured before and after a 12-h incubation by liquid-chromatography-coupled mass spectrometry (LC–MS); details: 2 µM
[18] = The drug is tested on Bifidobacterium longum subsp. Infantis strain: CCUG52486 for biotransformation. The drug concentrations were measured before and after a 12-h incubation by liquid-chromatography-coupled mass spectrometry (LC–MS); details: 2 µM
[19] = bacteroides thetaiotaomicron, 12 h, 2 µM
Description: The drug is tested on Bacteroides thetaiotaomicron strain: 3731 for biotransformation. The drug concentrations were measured before and after a 12-h incubation by liquid-chromatography-coupled mass spectrometry (LC–MS)

[20] = The drug is tested on Escherichia coli strain: BW25113 for biotransformation. The drug concentrations were measured before and after a 12-h incubation by liquid-chromatography-coupled mass spectrometry (LC–MS); details: 2 µM
[21] = The drug is tested on Collinsella intestinalis strain: DSM13280 for biotransformation. The drug concentrations were measured before and after a 12-h incubation by liquid-chromatography-coupled mass spectrometry (LC–MS); details: 2 µM
[22] = The drug is tested on Bacteroides ovatus strain: ATCC8483 for biotransformation. The drug concentrations were measured before and after a 12-h incubation by liquid-chromatography-coupled mass spectrometry (LC–MS); details: 2 µM
[23] = The drug is tested on Anaerotruncus colihominis strain: DSM17241 for biotransformation. The drug concentrations were measured before and after a 12-h incubation by liquid-chromatography-coupled mass spectrometry (LC–MS); details: 2 µM
[24] = The drug is tested on Eubacterium ventriosum strain: ATCC27560 for biotransformation. The drug concentrations were measured before and after a 12-h incubation by liquid-chromatography-coupled mass spectrometry (LC–MS); assay type: ADME; set-up: dose 2 uM, timepoint 0 vs 12 hours; details: 2 µM
[25] = The drug is tested on Bifidobacterium ruminantium strain: fecal isolate for biotransformation. The drug concentrations were measured before and after a 12-h incubation by liquid-chromatography-coupled mass spectrometry (LC–MS); details: 2 µM
[26] = The drug is tested on Dorea formicigenerans strain: ATCC27755 for biotransformation. The drug concentrations were measured before and after a 12-h incubation by liquid-chromatography-coupled mass spectrometry (LC–MS); details: 2 µM
[27] = The drug is tested on Bacteroides caccae strain: ATCC43185 for biotransformation. The drug concentrations were measured before and after a 12-h incubation by liquid-chromatography-coupled mass spectrometry (LC–MS); details: 2 µM
[28] = The drug is tested on Eubacterium hallii strain: DSM3353 for biotransformation. The drug concentrations were measured before and after a 12-h incubation by liquid-chromatography-coupled mass spectrometry (LC–MS); details: anaerobutyricum hallii, 2 µM
[29] = parabacteroides johnsonii, 12 h, 2 µM
Description: The drug is tested on Parabacteroides johnsonii strain: DSM18315 for biotransformation. The drug concentrations were measured before and after a 12-h incubation by liquid-chromatography-coupled mass spectrometry (LC–MS)

[30] = The drug is tested on Ruminococcus lactaris strain: ATCC29176 for biotransformation. The drug concentrations were measured before and after a 12-h incubation by liquid-chromatography-coupled mass spectrometry (LC–MS); details: 2 µM
[31] = The drug is tested on Bacteroides sp. WH2 strain: WH2 for biotransformation. The drug concentrations were measured before and after a 12-h incubation by liquid-chromatography-coupled mass spectrometry (LC–MS); details: bacteroides sp. wh2, 12 h, 2 µM
[32] = The drug is tested on Ruminococcus torques strain: ATCC27756 for biotransformation. The drug concentrations were measured before and after a 12-h incubation by liquid-chromatography-coupled mass spectrometry (LC–MS); assay type: ADME; set-up: dose 2 uM, timepoint 0 vs 12 hours; details: 2 µM

CCCCCOC(=O)Nc1nc(=O)n([C@@H]2O[C@H](C)[C@@H](O)[C@H]2O)cc1F [CAPECITABINE]
Bacterial Biotransformation [1]: Compound NOT metabolized
Bacterial Biotransformation [2]: Compound NOT metabolized
Bacterial Biotransformation [3]: Compound metabolized
Bacterial Biotransformation [4]: Compound NOT metabolized
Bacterial Biotransformation [5]: Compound NOT metabolized
Bacterial Biotransformation [6]: Compound NOT metabolized
Bacterial Biotransformation [7]: Compound NOT metabolized
Bacterial Biotransformation [8]: Compound NOT metabolized
Bacterial Biotransformation [9]: Compound metabolized
Bacterial Biotransformation [10]: Compound metabolized
Bacterial Biotransformation [11]: Compound NOT metabolized
Bacterial Biotransformation [12]: Compound metabolized
Bacterial Biotransformation [13]: Compound NOT metabolized
Bacterial Biotransformation [14]: Compound NOT metabolized
Bacterial Biotransformation [15]: Compound NOT metabolized
Bacterial Biotransformation [16]: Compound NOT metabolized
Bacterial Biotransformation [17]: Compound NOT metabolized
Bacterial Biotransformation [18]: Compound metabolized
Bacterial Biotransformation [19]: Compound NOT metabolized
Bacterial Biotransformation [20]: Compound metabolized
Bacterial Biotransformation [21]: Compound NOT metabolized
Bacterial Biotransformation [22]: Compound NOT metabolized
Bacterial Biotransformation [23]: Compound NOT metabolized
Bacterial Biotransformation [24]: Compound NOT metabolized
Bacterial Biotransformation [25]: Compound NOT metabolized
Bacterial Biotransformation [26]: Compound NOT metabolized
Bacterial Biotransformation [27]: Compound NOT metabolized
Bacterial Biotransformation [28]: Compound NOT metabolized
Bacterial Biotransformation [29]: Compound NOT metabolized
Bacterial Biotransformation [30]: Compound NOT metabolized
Bacterial Biotransformation [31]: Compound NOT metabolized
Bacterial Biotransformation [32]: Compound NOT metabolized
